According to patent US20070238700A1, “N-PHENYL-1,1,1-TRIFLUOROMETHANESULFONAMIDE HYDRAZONE DERIVATIVE COMPOUNDS AND THEIR USAGE IN CONTROLLING PARASITES” (priority 2006, published 2007):
Read-outs that look alike come from different tables or passages of the source.

Tested on: Ctenocephalides felis
Procedure: b) Ctenocephalides felis Adulticide Assay: C. felis Single Dose Screen
Mortality of fleas was the primary endpoint in the assay. Fleas were considered dead if they didn't move or were on their sides and unable to walk or right themselves. […] The concentration chosen (1.26 μg/cm^2) was higher than that known to kill 90% of cat fleas (LC90) using the reference compound, permethrin.
The test species was the cat flea (Ctenocephalides felis). The strain used was obtained from external suppliers as pupae and held in the laboratory under testing conditions until the adults had emerged. Fifteen (15) fleas were used in a minimum of four replicates against a single concentration level (approximately 60 fleas). The insects were selected to be in the adult life stage, aged between 3 and 7 days post emergence.
The compounds to be tested were supplied as solids and were prepared in acetone as described below prior to testing. Samples were stored in a refrigerator (5±1° C.) unless otherwise specified.
During the mortality testing, the temperature was maintained at 25±1° C. Humidity was maintained at 75±5%. The base (area=159 mm^2) of a 100 mL glass Erlenmeyer (conical) flask provided the treatment surface. Flasks were pretreated with Coatasil™ glass treatment to maximise bio-availability of test compounds by preventing them from binding to glass the surface. The base of the 100 mL Erlenmeyer flask was treated with 0.5 mL of test sample in acetone and gently swirled. This volume was sufficient to cover the base of the flask. Flasks were left to dry for 24 hours before flea exposure.
Adult cat fleas were placed into a sorting chamber, which allowed fleas to jump into the Erlenmeyer flasks. Fifteen (15) adult cat fleas were collected in each flask. The top of the flasks were then covered in Parafilm™ and small holes were made to allow gas exchange. A 0.5 mL volume of acetone as a solvent control was applied to the base of an Erlenmeyer flask and the testing proceeded in the same manner described above. Cat fleas in the treatment containers were held under testing conditions for 8, 24 and/or 48 hours. Mortality was recorded at 8, 24, 8 and 24, or 24 and 48 hours Pooled 8, 24, 8 and 24, and 24 and 48 hour mortality data were converted to percentages and are summarized by Table 21, below.

| SMILES | C. felis Mortality (%) 8 h (8 h, data from laboratory 1) | C. felis Mortality (%) 24 h (24 h, data from laboratory 1) | C. felis Mortality (%) 8 h | C. felis Mortality (%) 24 h | C. felis Mortality (%) 48 h (48 h, data from laboratory 1) |
| --- | --- | --- | --- | --- | --- |
| CC(=NNc1ccc(C)cc1)c1cc(Cl)ccc1NS(=O)(=O)C(F)(F)F [Compound 155] | 7% | 28% | – | – | – |
| C#CCN(N=C(C)c1cc(Cl)ccc1NS(=O)(=O)C(F)(F)F)c1ccccc1 [Compound 175] | 5% | 38% | – | – | – |
| CCC(=NNC(=O)OC)c1cc(Cl)ccc1NS(=O)(=O)C(F)(F)F [Compound 87] | 7% | 12% | – | – | – |
| CN(C)N=C(c1ccccc1)c1cc(Cl)ccc1NS(=O)(=O)C(F)(F)F [Compound 123, N-[2-[1-dimethylhydrazono-1-phenyl]methyl-4-chlorophenyl]-trifluoromethanesulfonamide] | – | – | 9% | 45% | – |
| CCC(=NNC(=O)OC(C)(C)C)c1cc(Cl)ccc1NS(=O)(=O)C(F)(F)F [Compound 89] | 6% | 43% | – | – | – |
| C#CCN(c1ccc(Cl)cc1C(C)=NN(C)c1ccccc1)S(=O)(=O)C(F)(F)F [Compound 137] | 6% | 19% | – | – | – |
| CC(=NN1CCCCCC1)c1cc(Cl)ccc1NS(=O)(=O)C(F)(F)F [Compound 107] | 2% | 23% | – | – | – |
| CCN(N=C(C)c1cc(Cl)ccc1NS(=O)(=O)C(F)(F)F)c1cc(Cl)ccc1Cl [Compound 142] | 12% | 46% | – | – | – |
| CC(=NN(C)c1ccccc1)c1cccc(Cl)c1NS(=O)(=O)C(F)(F)F [Compound 115] | 10% | 63% | – | – | – |
| CC(=NN(c1ccc(Cl)cc1Cl)C(C)C)c1cc(Cl)ccc1NS(=O)(=O)C(F)(F)F [Compound 32] | – | 41% | – | – | 100% |
| COCN(c1ccc(Cl)cc1C(C)=NN(C)c1ccccc1)S(=O)(=O)C(F)(F)F [Compound 110] | 6% | 52% | – | – | – |
| CC(=NN(c1ccc(Br)cc1)C(C)C)c1cc(Cl)ccc1NS(=O)(=O)C(F)(F)F [Compound 52] | 51% | 100% | – | – | – |
| CN(N=C(c1cc(Cl)ccc1NS(=O)(=O)C(F)(F)F)C1CCCCC1)c1ccccc1 [Compound 119] | 7% | 14% | – | – | – |
| CCN(N=C(C)c1cc(Cl)ccc1NS(=O)(=O)C(F)(F)F)C1CCCC1 [Compound 212] | – | – | 7% | 59% | – |
| O=S(=O)(Nc1ccc(Cl)cc1-c1ccn(-c2ccccc2)n1)C(F)(F)F [Compound 94] | 6% | 8% | – | – | – |
| CCOC(=O)NN=C(C)c1cc(Cl)ccc1NS(=O)(=O)C(F)(F)F [Compound 85] | 3% | 12% | – | – | – |
| CC(=NNC(=O)Nc1ccc(Cl)cc1)c1cc(Cl)ccc1NS(=O)(=O)C(F)(F)F [Compound 92] | 8% | 8% | – | – | – |
| CC(=NNC(=O)Nc1ccccc1)c1cc(Cl)ccc1NS(=O)(=O)C(F)(F)F [Compound 90, N-[2-[1-(4-phenyl)semicarbazono]ethyl-4-chlorophenyl]-trifluoromethanesulfonamide] | – | – | 3% | 18% | – |
| C/C(=N\N1C(=O)NC(C)(C)C1=O)c1cc(Cl)ccc1NS(=O)(=O)C(F)(F)F [Compound 187] | 5% | 19% | – | – | – |
| CC(=NN(C)c1ccc2ccccc2n1)c1cc(Cl)ccc1NS(=O)(=O)C(F)(F)F [Compound 198] | 2% | 25% | – | – | – |

| SMILES | C. felis Mortality (%) 8 h (8 h, data from laboratory 1) | C. felis Mortality (%) 24 h (24 h, data from laboratory 1) | C. felis Mortality (%) 8 h | C. felis Mortality (%) 24 h | C. felis Mortality (%) 48 h (48 h, data from laboratory 1) |
| --- | --- | --- | --- | --- | --- |
| CCC(=NN(CC)C1CCCCC1)c1cc(Cl)ccc1NS(=O)(=O)C(F)(F)F [Compound 218] | 5% | 62% | – | – | – |
| CN(N=C(c1ccccc1)c1cc(Cl)ccc1NS(=O)(=O)C(F)(F)F)c1ccccc1 (single isomer, unassigned) [Compound 118] | 6% | 27% | – | – | – |
| CC(=O)N(N=C(C)c1cc(Cl)ccc1NS(=O)(=O)C(F)(F)F)c1ccccc1 [Compound 183] | – | – | 2% | 22% | – |
| CCN(N=C(C)c1cc(Cl)ccc1NS(=O)(=O)C(F)(F)F)C1CCCCC1 [Compound 216] | 0% | 52% | – | – | – |
| CC(=NN(C)c1cc(Cl)ccc1Cl)c1cc(Cl)ccc1NS(=O)(=O)C(F)(F)F [Compound 141] | 13% | 75% | – | – | – |
| CC(=NNc1ccc(Cl)cc1)c1ccc(C(F)(F)F)cc1NS(=O)(=O)C(F)(F)F [Compound 179] | 3% | 25% | – | – | – |
| CC(=NNS(=O)(=O)c1ccc(C)cc1)c1cc(Cl)ccc1NS(=O)(=O)C(F)(F)F [Compound 174] | 5% | 27% | – | – | – |
| CC(=NN(C)c1ccccc1)c1cc(Cl)ccc1N(COC(=O)C(C)(C)C)S(=O)(=O)C(F)(F)F [Compound 111] | 14% | 32% | – | – | – |
| CC(=Nn1cnc2ccccc2c1=O)c1cc(Cl)ccc1NS(=O)(=O)C(F)(F)F [Compound 186, N-[4-Chloro-2-(1-{4(3)-oxo-quinazolin-3-yl}imino)ethylphenyl]-trifluoromethanesulfonamide] | – | – | 2% | 12% | – |
| C#CCN(c1ccc(Cl)cc1C(C)=NN1CCCCC1)S(=O)(=O)C(F)(F)F [Compound 133, N-[2-[1-(1-piperidyl)imino]ethyl-4-chlorophenyl]-N-propargyltrifluoromethanesulfonamide] | – | – | 5% | 66% | – |
| O=S(=O)(Nc1ccc(Cl)cc1C1=NN(c2ccccc2F)CC1)C(F)(F)F [Compound 228] | 14% | 59% | – | – | – |
| C/C(=N\NC(=O)Nc1ccc(C(F)(F)F)cc1)c1cc(Cl)ccc1NS(=O)(=O)C(F)(F)F [Compound 208] | 8% | 18% | – | – | – |
| O=S(=O)(Nc1ccc(Cl)cc1C1=NN(c2ccccc2)CC1)C(F)(F)F [Compound 226] | 0% | 28% | – | – | – |
| CC(=NN1CCN(C)CC1)c1cc(Cl)ccc1NS(=O)(=O)C(F)(F)F [Compound 191] | 2% | 48% | – | – | – |
| CC(=NNc1ccc(Cl)cc1)c1ccccc1NS(=O)(=O)C(F)(F)F [Compound 122] | 23% | 26% | – | – | – |
| CC(=NN(c1ccc(Cl)c(Cl)c1)C(C)C)c1cc(Cl)ccc1NS(=O)(=O)C(F)(F)F [Compound 68] | 18% | 73% | – | – | – |
| O=S(=O)(Nc1ccc(Cl)cc1C1=NN(c2ccc(F)cc2)CC1)C(F)(F)F [Compound 233] | 9% | 28% | – | – | – |
| CC(=NN(C)c1ccc(Cl)nn1)c1cc(Cl)ccc1NS(=O)(=O)C(F)(F)F [Compound 194] | 0% | 5% | – | – | – |
| CN(N=C1CCCc2cccc(NS(=O)(=O)C(F)(F)F)c21)c1ccccc1 [Compound 219, N-[8-(N′-methyl-N′-phenyl)hydrazono-5,6,7,8-tetrahydro-naphthalen-1-yl]-trifluoromethanesulfonamide] | – | – | 0% | 2% | – |
| CCN(N=C(C)c1cc(Cl)ccc1NS(=O)(=O)C(F)(F)F)c1cccc(Cl)c1Cl [Compound 69] | 39% | 92% | – | – | – |
